# According to patent US7192932B1, “Use of immunomodulating agents” (Lauras AS, priority 1997, dated 2007):
# “And” between values parts separate entries of the source, which are not always exact repeats. Identical values can stand only once. Marks after values point to notes of the source that are not given here.
# What was measured:
# [1] = system: peripheral blood CD3+ T cells; test: TCR/CD3 stimulated proliferation of liposome-transfected CD3+ T cells treated with 8-CPT-cAMP; assay type: cell-based, human; conditions: for IC50: FIG. 10
# Experimental: FIG. 8. Reversal of cAMP-mediated inhibition of TUR/CD3 stimulated T cell proliferation by the use of ribozyme to the RIα subunit of protein kinase A type I. TCR/CD3 stimulated proliferation of peripheral blood CD3+ T cells from normal healthy blood donor following treatment with liposomes alone (mock) or with liposomes and RIα ribozyme (RIα rbz, 10 μM) in the absence (solid bars) and presence (open bars) of 8-CPT-cAMP (12,5 μM).
# FIG. 9. Reversal of cAMP-mediated inhibition of TCR/CD3 stimulated T cell proliferation by the use of competitor peptide to compete the TCR/CD3 associated anchoring of RIα subunit of protein kinase A type I in T cells. TCR/CD3 stimulated proliferation of peripheral blood CD3+ T cells from normal healthy blood donor following treatment with liposomes alone (mock) or with increasing concentrations (25 to 100 μM) of a competitor peptide (Ht-31) that competes anchoring, to PKA type II or a control peptide (Ht31-P).
# FIG. 10. TCR/CD3 stimulated proliferation of peripheral blood CD3+ T cells in the presence of increasing, concentrations of 8-CPT-cAMP. Normalized levels of proliferation of T cells mock transfected with liposomes only (solid circles, continuous line) or incubated with liposomes and Ht31 peptide (35 μM) to compete anchoring of protein kinase A type I (open circles, dotted line) was assessed as [^3H]-thymidine incorporation after 48 h during which [^3H]-thymidine was added for the last 18 h. Note: right shift of the IC50 (arrow) from 1,8 to 4,8 μM in the presence of […].
# When transfected as synthetic RNA ribozyme or as a synthetic RNA ribozyme stabilized by incorporation of 2-deoxycytosine and 2-deoxy-uracil analogs into peripheral blood CD3+ T cells, the ribozyme reduced levels of RIα protein to approximately 20% of control levels by removing the RIα mRNA. By this strategy, the majority of protein kinase A type 1 was removed from the T cells. We then assessed the immune responsiveness of CD3+ T cells transfected with ribozyme compared to control (mock) transfected T cells measured as T cell proliferation after activation of T cells by stimulation of the T cell receptor/CD3 complex (TCR/CD3). In order to simulate a T cell dysfunction as that of HIV infection, with elevated levels of cAMP and increased activation of protein kinase A type 1, we treated normal T cells with low dose (12.5 around IC50) of the cAMP analog 8-(4-chlorophenyl)-thio-cAMPS (8-CPT-cAMP). […] For in vivo use pretreatment of ribozymes to allow cellular uptake or introduction into cells as minigenes will be necessary.
# We incubated blood CD3+ T cells with increasing concentrations of Ht31 (SEQ. ID. NO 2) peptide. In order to facilitate uptake, cells were treated with liposomes in the presence or absence of-peptide. The optimal concentrations of DOTAP liposomes and anti-CD3 antibody were titrated carefully in order to maintain the membrane stability and normal TCR/CD3-dependent activation of the T cells. Cells were incubated for 20 hours with DOTAP/peptide and incubations continued in the absence (solid bars) or presence of 8-CPT-cAMP (6.25 μM, hatched bars) and activated to proliferation by stimulation of TCR/CD3 T cell immune responsiveness was assessed as [3H]thymidine incorporation.
# Next, the effect of the competitor peptide (Ht-31, 35 μM) on T cell proliferation was examined in the presence of increasing concentrations of 8-CPT-cAMP and compared to mock transfected cells treated with the same concentrations of 8-CPT-cAMP (FIG. 10). As shown previously for normal peripheral blood T cells. […] Compared to the left-shifted curves observed with T cells from HIV-infected patients or patients with CIV due to elevated levels of endogenous cAMP activating PKA type 1, the right-shift observed here would be expected to normalize the situation in patients.
# [2] = system: peripheral blood CD3+ T cells; test: TCR/CD3 (anti-CD3) stimulated T cell proliferation, [3H]-thymidine incorporation; assay type: cell-based, human
# Experimental: (§1) Human peripheral blood CD3+ T cells were purified by negative selection from 50 ml of heparin-treated blood from normal healthy donors (Ullevaal University Hospital Blood Center, Oslo. Norway) or patients. Briefly, peripheral blood mononuclear cells were isolated by density gradient (Lymphoprep, NycoMed, Oslo, Norway) centrifugation followed by negative selection using monodisperse magnetic beads directly coated with antibodies to CD14 and CD19 and rat anti-mouse IgG beads coated with antibodies to CD56 and a magnet. Magnetic beads were all from Dynal (Oslo, Norway, cat. no. 111.12, 111.04, and 110.11. respectively) whereas anti-CD56 antibody was from Pharmingen (San Diego, Calif., cat. no. 31660.d). All steps were performed at 4° C.
# as §1, with “Peripheral blood” for “Human peripheral blood”, “Center, Oslo,” for “Center, Oslo.”, “selection using,” for “selection using”, “and 110.11,” for “and 110.11.”, “Calif., eat.” for “Calif., cat.”
# Proliferation assays were performed by incubation of 0.75×10^6 CM+ T cells/ml in a 100 μl volume in that-bottom 96-well microtiter plates. Activation was achieved by subsequent addition of monodisperse magnetic beads coated with sheep anti-mouse IgG (Dynal. cat. no. 110.02) at a cell:bead ratio of 1:1 followed by addition of antiCD3 (clone SpvT3b) at a final dilution of 1:125,000 for the experiments shown. The optimal concentration of antibody was titrated carefully in the initial setup and parallel experiments at several different dilutions of antibody was always performed. Proliferation was analyzed by incubating, cells for 72 hours during which [^3H]thymidine was included for the last 16 hours. Cells were washed and harvested onto filters using a Scatron harvester (Suffolk, UK) and subsequently analyzed by β-scintillation counting. cAMP analogs, when used, were added 30 min prior to activation by addition of […] antibodies. 8-CPT-cAMP was from Sigorna (St. Louis, Mo.) and Sp- and Rp-8-Br-cAMPS were from BioLog Life Science Company (Bremen, Germany) and were all dissolved to concentrations of 4 to 10 mM in PBS and concentrations calculated using the extinction coefficients given by the manufacturer.
smiles,measurement,setting,value
"Nc1ncnc2c1nc(Sc1ccc(Cl)cc1)n2[C@@H]1O[C@@H]2COP(=O)(O)O[C@H]2[C@H]1O [8-CPT-cAMP, 8-(4-chlorophenylthio)cAMP, reference compound]",T cell proliferation in presence of cAMP analog,"[1]; mock transfected normal T cells, 8-CPT-cAMP 12.5 μM, FIG. 8",approximately 20 % of control
same,IC50,"[1]; normal T cells incubated with liposomes and Ht31 peptide (35 μM), read-out: apparent IC50, inhibition of TCR/CD3 stimulated proliferation",4800 nM
same,IC50,"[1]; normal T cells mock transfected with liposomes only, read-out: IC50, inhibition of TCR/CD3 stimulated proliferation",~1800 nM and 1800 nM
same,Hill coefficient of cAMP-inhibition curve,"[2]; T cells from HIV seropositive individuals, n=18",1.19 (1.13–1.40)
same,Inhibition of proliferation by 8-CPT-cAMP Hill coefficient,"[2]; T cells from HIV+ asymptomatic patients, n = 8, median (25 to 75% range)",1.18(1.09–1.36)^b
same,IC50,"[2]; T cells from HIV+ asymptomatic patients, n = 8, median (25 to 75% range), read-out: Inhibition of proliferation by 8-CPT-cAMP IC50",2260 nM
same,Inhibition of proliferation by 8-CPT-cAMP Hill coefficient,"[2]; T cells from HIV+ symptomatic patients, n = 10, median (25 to 75% range)",1.19(1.13–1.40)^o
same,IC50,"[2]; T cells from HIV+ symptomatic patients, n = 10, median (25 to 75% range), read-out: Inhibition of proliferation by 8-CPT-cAMP IC50",1870 nM
same,IC50,"[2]; T cells from a healthy blood donor, FIG. 1B, read-out: IC50, inhibition of TCR/CD3 stimulated proliferation",6110 nM
same,IC50,"[2]; T cells from a representative HIV-infected patient (#10 in Table 2a), FIG. 1B, read-out: IC50, inhibition of TCR/CD3 stimulated proliferation",1780 nM
same,Inhibition of proliferation by 8-CPT-cAMP Hill coefficient,"[2]; T cells from normal controls, n = 8, median (25 to 75% range)",1.59(1.40–1.81)
same,IC50,"[2]; T cells from normal controls, n = 8, median (25 to 75% range), read-out: Inhibition of proliferation by 8-CPT-cAMP IC50",4590 nM
same,Inhibition of proliferation by 8-CPT-cAMP Hill coefficient,"[2]; T cells from patients on triple combination therapy, n = 9, median (25 to 75% range)",1.35(1.33–1.68)
same,IC50,"[2]; T cells from patients on triple combination therapy, n = 9, median (25 to 75% range), read-out: Inhibition of proliferation by 8-CPT-cAMP IC50",2590 nM
same,Inhibition of proliferation by 8-CPT-cAMP (−Hill coefficient),[2]; T cells of individual CVI patients #1-#7,1.34 and 1.38 and 2.03 and 1.39 and 1.46 and 1.47 and 1.26
same,IC50,"[2]; T cells of individual CVI patients #1-#7, read-out: Inhibition of proliferation by 8-CPT-cAMP (IC50)",3680 nM and 3360 nM and 3160 nM and 2660 nM and 2340 nM and 2980 nM and 2260 nM
same,Inhibition of proliferation by 8-CPT-cAMP (−Hill coefficient),[2]; median in 7 CVI patients,1.39^§
same,IC50,"[2]; median in 7 CVI patients, read-out: Inhibition of proliferation by 8-CPT-cAMP (IC50)",2980 nM
same,Inhibition of proliferation by 8-CPT-cAMP (−Hill coefficient),[2]; median in 8 healthy controls,1.59
same,IC50,"[2]; median in 8 healthy controls, read-out: Inhibition of proliferation by 8-CPT-cAMP (IC50)",4590 nM
same,IC50,"[2]; one healthy control, FIG. 4B, read-out: IC50, inhibition of anti-CD3 stimulated T lymphocyte proliferation",4660 nM
same,IC50,"[2]; one representative CVI patient, FIG. 4B, read-out: IC50, inhibition of anti-CD3 stimulated T lymphocyte proliferation",2260 nM
